For test [1], the system named is established mechanical hyperalgesia. The test is described as follows: Chronic neuropathic pain model (Seltzer, partial ligation of the sciatic nerve), paw withdrawal threshold. The class given is in vivo, Wistar rats. The following applies: mean ± s.e.m. The source says: Hyperalgesia is examined in the model of neuropathic pain induced by partial ligation of the sciatic nerve as described by Seltzer et al. (1990). Briefly, Wistar rats (120-140 g) are anaesthetised, the left sciatic nerve exposed at mid-thigh level through a small incision and ⅓ to ½ of the nerve thickness tightly ligated within a 7.0 silk suture. The wound is closed with a single muscle suture and skin clips and dusted with Aureomycin antibiotic powder. The animals are allowed to recover and used 12-15 days following surgery. Mechanical hyperalgesia is assessed by measuring paw withdrawal thresholds to an increasing pressure stimulus placed onto the dorsal surface of the paw using an analgesy-meter (Ugo-Basile, Milan) with a cut-off of 250 g. Withdrawal thresholds are measured on both the ipsilateral (ligated) and contralateral (unligated) paw prior to (predose) and then up to 6 h following drug or vehicle administration. Data are expressed as withdrawal threshold (g) and percentage reversal of hyperalgesia calculated according to the following formula: [formula]
Potency is expressed as D50 value, i.e. the dose of the single compound or a COMBINATION OF THE INVENTION necessary to produce 50% reversal of hyperalgesia.
Paw withdrawal thresholds are measured prior to drug treatment (predose) and then at 0.5, 1, 3 and 6 hours following concomitant administration of morphine subcutaneously and the cathepsin inhibitor of formula II orally. Each time point represents data from 6 animals per group. Vehicle is 0.5% methylcellulose, 1 ml p.o./0.9% saline s.c. Statistical analysis is performed on raw data (paw withdrawal thresholds).
Statistical significance, *† P<0.05 by Analysis of variance followed by Dunnett's test.

For test [2], the system named is neuropathic rat nociceptive threshold. The test is described as follows: Naloxone blockade of anti-hyperalgesic effect in neuropathic rats. The class given is in vivo.

Counter-ions that a name gives are not always drawn.

`CC(C)(C)CCn1c(Cc2ccc(Cl)cc2)cc2cnc(C#N)nc21` [Inhibitor]: the “% Reversal of Predose Hyperalgesia” value turned out to be 30.3 ± 5.8% in test [1] (Inhibitor 10 mg/kg p.o., 0.5 h post-dose); 22.8 ± 4.6% in test [1] (Inhibitor 10 mg/kg p.o., 1 h post-dose); 46.7 ± 11.4% in test [1] (Inhibitor 30 mg/kg, 0.5 h post-dose); 54.7 ± 7.1% in test [1] (Inhibitor 30 mg/kg, 1 h post-dose).

As to `CN1CC[C@]23c4c5ccc(O)c4O[C@H]2[C@@H](O)C=C[C@H]3[C@H]1C5` [Morphine, morphine], the “% Reversal of Predose Hyperalgesia” value in test [1] (Morphine 1 mg/kg s.c., 0.5 h post-dose) was 4.4 ± 2.8%; in test [1] (Morphine 1 mg/kg s.c., 1 h post-dose), 6.5 ± 2.9%.

Consider `C=CCN1CC[C@]23c4c5ccc(O)c4O[C@H]2C(=O)CC[C@@]3(O)[C@H]1C5` [Naloxone hydrochloride], for which the “effect on neuropathic rat nociceptive threshold” value in test [2] (naloxone alone, 0.1 mg/kg) is on record as “devoid of any effect”. Besides, in test [2] (neuropathic rats, naloxone 0.1 mg/kg), the “effect on the anti-hyperalgesic effect induced by the compound of formula II” value is reported as “blocks the anti-hyperalgesic effect”.

The values are drawn from patent publication US20070037835A1, “Pharmaceutical composition comprising a cathepsin s inhibitor and an opioid” (priority 2003, published 2007).
